In patent US20240238309A1, “PHARMACEUTICAL FORMULATIONS OF TREPROSTINIL PRODRUGS AND METHODS OF USE THEREOF” (Insmed Incorporated, priority 2020, published 2024):

Assay: Solubility of C16TR in propellants
Assay type: physicochemical
Conditions: HFA134a, HFA227ea, and HFA152a
Excerpt: C16TR is insoluble in all commercially available propellants (HFA134a, HFA227ea, and HFA152a) and requires the use of alcohol co-solvent. When formulated with DSPE-PEG2000 and PEG400 for use with an MDI as well as desirable in vivo performance, the formulation required approximately 10% of alcohol co-solvent. Such a high level of alcohol co-solvent may lead to reduced chemical stability and aerosol performance. Unexpected improvement in chemical stability was observed when a switch from ethanol (industry standard cosolvent) to isopropyl alcohol (novel excipient) was made, as in the C16TR-MDI-W formulation.

CCCCCCCCCCCCCCCCOC(=O)COc1cccc2c1C[C@H]1C[C@@H](O)[C@H](CC[C@@H](O)CCCCC)[C@H]1C2 [Formulation C16TR, Treprostinil palmitil]
solubility in commercially available propellants: insoluble
